Source: PMC9000469 (Molecules, 2022)
Values joined by “and” are separate entries in the source; they are usually repeats but may differ in a detail not shown here. Equal values may be shown once. “Also recorded” adds a separate entry of the source. Where a name gives a salt, the structure may show the parent alone. Read-outs that look alike come from different tables or passages of the source.

Tests used:
[1] = Permeability across the PermeaPad 96-well plate biomimetic barrier; type: in vitro ADME; conditions: for Effect of medium pH (6.8 versus 7.4) on permeability across the PermeaPad barrier: Student t-test, p > 0.05; for Permeability across the PermeaPad barrier by passive diffusion (in words): pH 6.8 and 7.4; for Papp on the Permeapad membrane: pH not stated in the sentence (equals the pH 7.4 value of Figure 4)
Method: The […]® 96-well plate was purchased from InnoME GmbH ([…], Germany). The plate consists of a bottom plate, a screen plate with a lipid barrier and a lid. The surface area for permeation studying is 0.15 cm^2. The permeability tests across a biomimetic barrier of drug substances were performed from the bottom to the top compartment. The compounds were dissolved in PBS with pH 6.8 or 7.4. […] The permeation tests for all compounds were performed at room temperature (25 °C). HPLC methods were used to determine the concentration of the compound transported. The apparent permeability coefficient (Papp) was calculated according to the protocol described by di Cagno et al..

[2] = parameters: method as in PMID 25840123; conditions: concentration 5 mM; cited from earlier work
[3] = Physicochemical properties of compounds (pKa, logP); conditions: internal data
Excerpt: PA was obtained from Ethifarm (Ethifarm, Poznan, Poland). Reference substances CAF and NF were obtained from Sigma Aldrich (Merck Group, Darmstadt, Germany).

Caco-2 monolayer [4] = conditions: previously published results, cited from earlier work
[5] = cited from earlier work
Caco-2 cells = experiment: MTT cytotoxicity assay in Caco-2 cells; conditions: 0.0–2.0 mg/mL, 2 h exposure
Method: After leaving them overnight, different concentrations of analyzed substances in HBSS pH 7.4 were added.. Cells were exposed to the substances for 2 h (time of transport across monolayer) in an incubator under optimal culture conditions. After incubation, the solution was removed and the mixture of DMEM cell culture medium and MTT (5 mg/mL) was added. Cells were incubated for 2 h, and then the resulting formazan crystals were dissolved in DMSO. The absorbance was measured using an Elx-800 absorbance microplate reader (Biotek, Winooski, VT, USA) at wavelength 540 nm.

PEPT2 = system: PEPT2; parameters: method as in PMID 19519280; conditions: cited from earlier work
[6] = cited from earlier work; remark: listed apart in the source
[7] = conditions of high temperatures and relative humidity; cited from earlier work
Caco-2 monolayer [8] = conditions: for Papp across Caco-2 monolayer: basolateral to apical, 2 h, pH 7.4, 37 °C, mean ± SD, n = 3
Method: For the transport study, the Caco-2 cells were seeded at 4 × 10^5 cells/well on the permeable cell culture inserts with a 0.4 µm pore diameter (Millipore-Merck Group, Darmstadt, Germany) placed in 6-well plates. The cells were cultured for 22 days in the incubator under optimal culture conditions (37 °C, 5% CO2, and 95% air) to their spontaneity differentiating. The integrity of the monolayer was tested by measuring the Trans Epithelial Electrical Resistance (TEER) every 48 h using a Millicel ERS-2 Voltohmmeter (Millipore-Merck Group, Darmstadt, Germany). The cells’ monolayer with an average TEER value > 600 Ohm × cm^2 was considered to be suitable for permeability testing.
The permeability tests across the Caco-2 monolayer of substances were performed from basolateral to the apical compartment (B–A). Plates with cell culture inserts were incubated at 37 °C with shaking at 100 rpm for 2 h. Drug substances were dissolved in the transport buffer solution (HBSS with 25 mM HEPES, pH 7.4) and placed into a donor compartment. The solution volume in the apical and basolateral compartments was maintained at 2 mL and 4 mL, respectively. The samples (150 µL) from the acceptor compartment were taken at 15 min intervals and were replaced with fresh reheated (37 °C) buffer. The HPLC analysis described below was used to determine the concentration of the compound transported. Transport kinetics and the apparent permeability coefficient (Papp) were calculated according to the protocols described by Tavelin et al. and Hubatsch et al..
Concentrations of all compounds transported were determined by the reverse phase HPLC with UV-VIS detection. HPLC analysis was conducted on Waters UPLC Acquity H-class apparatus with Empower 3.0 software (Waters Corporation, Milford, MA, USA). […] The isocratic flow rate was set as 0.6 mL/min and the detection wavelength on λ = 215 nm.

PEPT1 = system: PEPT1; parameters: method as in PMID 19519280; conditions: cited from earlier work

Structure (SMILES): Cn1c(=O)c2c(ncn2C)n(C)c1=O [CAF, caffeine]
- Effect of medium pH (6.8 versus 7.4) on permeability across the PermeaPad barrier [1]: no significant difference
- Permeability across the PermeaPad barrier by passive diffusion (in words) [1]: highest transport
- Permeability across the PermeaPad barrier by passive diffusion (in words) ([1]; listed as Caffeine): high permeable
- Papp in the PermeaPad barrier [2]: 24 ×10⁻⁶ cm/s

Structure (SMILES): CCN(CC)CCOC(=O)C(Cc1cccc2ccccc12)CC1CCCO1 (stereo not shown) [NF, Naftidrofuryl oxalate]
- Effect of medium pH (6.8 versus 7.4) on permeability across the PermeaPad barrier [1]: slightly lower permeability of NF in medium at pH 7.4
- Papp at 4 h ([1]; not told, both 0.2 mg/mL and 0.125 mg/mL, read-out: Papp through the PermeaPad membrane, bound stated for both concentrations): > 10 ×10⁻⁶ cm/s
- Permeability across the PermeaPad barrier by passive diffusion (in words) [1]: relatively high and high
- pKa [3]: 4.1
- Papp through the Caco-2 monolayer (Caco-2 monolayer [4]; 0.125 mg/mL): 84.1 ×10⁻⁶ cm/s
- Papp through the Caco-2 monolayer (Caco-2 monolayer [4]; 0.2 mg/mL): 78.8 ×10⁻⁶ cm/s

Structure (SMILES): CCC[C@H](N[C@@H](C)C(=O)N1[C@H](C(=O)O)C[C@@H]2CCCC[C@@H]21)C(=O)OCC.N=C(N)NCCC[C@H](N)C(=O)O [PA, Perindopril arginine]
- Permeability (BCS characterisation) [5]: low permeability
- Permeability (characterisation) [5]: low permeability
- Cytotoxicity to the Caco-2 cell line (MTT) (Caco-2 cells): not cytotoxic; also recorded: No effect
- Papp on the Permeapad membrane ([1]; 1.0 mg/mL): 35.7 ×10⁻⁶ cm/s
- Papp on the Permeapad membrane ([1]; 2.0 mg/mL): 43.9 ×10⁻⁶ cm/s
- Effect of medium pH (6.8 versus 7.4) on permeability across the PermeaPad barrier [1]: did not affect; also recorded: no significant differences
- Permeability across the PermeaPad barrier by passive diffusion (in words) [1]: lowest permeability; also recorded: relatively low permeability
- Interaction with the intestinal peptide transporter PEPT2 (PEPT2): relatively poor interaction
- Time to peak plasma concentrations (absorption completed) ([6]; after oral administration): approximately 1 h
- Absolute oral bioavailability [6]: 75%
- Shelf life and stability of the arginine salt compared with the erbumine salt [7]: greater shelf life and stability
- pKa (strongest acid) [3]: 3.17
- pKa (strongest base) [3]: 5.67
- logP ([3]; two values printed per compound without explanation): 0.65 and 0.56
- Compound Permeability (Caco-2 monolayer) (Caco-2 monolayer [8]; 1.0 mg/mL): low (when Papp is lower than 1 × 10^−6 cm/s, the substance is considered poorly permeable)
- Papp across Caco-2 monolayer (Caco-2 monolayer [8]; 1.0 mg/mL): 0.72 ± 0.04 × 10^−6 cm/s
- Papp across Caco-2 monolayer (Caco-2 monolayer [8]; 2.0 mg/mL): 1.94 ± 0.96 × 10^−6 cm/s
- Interaction with the intestinal peptide transporter PEPT1 (PEPT1): relatively poor interaction

Structure (SMILES): CCC[C@H](N[C@@H](C)C(=O)N1[C@H](C(=O)O)C[C@@H]2CCCC[C@@H]21)C(=O)O [Perindoprilat, perindoprilat]
- Average bioavailability of the active metabolite ([6]; after oral PA): about 25%
- Mean half-life [6]: 5 to 11 h

Structure (SMILES): CCC[C@H](N[C@@H](C)C(=O)N1[C@H](C(=O)O)C[C@@H]2CCCC[C@@H]21)C(=O)OCC [perindopril]
- Fraction metabolized into perindoprilat during the first pass of the liver ([6]; oral administration, no ref printed with the sentence): 30–50%
